Reference: US10660877B2 (BRISTOL-MYERS SQUIBB COMPANY, priority 2016, dated 2020)
Like-named read-outs stand apart in the source and are kept apart here.

Columns and labels:
human TLR9 = human TLR9 (Homo sapiens (Human), UniProt Q9NR96); assay: TLR9 inhibition reporter assay (HEK-Blue cells, SEAP reporter, ODN2006 stimulation);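 note: compounds tested over 0.05 nM to 50 µM, 22 h incubation, inhibition taken as SEAP signal drop from agonist plus DMSO wells toward a known inhibitor control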
human TLR7 = human TLR7 (Homo sapiens (Human), UniProt Q9NYK1); assay: TLR7 inhibition reporter assay (HEK-Blue cells, SEAP reporter, gardiquimod stimulation); assay type: cell-based
human TLR7, sequence (Q9NYK1 27-1049): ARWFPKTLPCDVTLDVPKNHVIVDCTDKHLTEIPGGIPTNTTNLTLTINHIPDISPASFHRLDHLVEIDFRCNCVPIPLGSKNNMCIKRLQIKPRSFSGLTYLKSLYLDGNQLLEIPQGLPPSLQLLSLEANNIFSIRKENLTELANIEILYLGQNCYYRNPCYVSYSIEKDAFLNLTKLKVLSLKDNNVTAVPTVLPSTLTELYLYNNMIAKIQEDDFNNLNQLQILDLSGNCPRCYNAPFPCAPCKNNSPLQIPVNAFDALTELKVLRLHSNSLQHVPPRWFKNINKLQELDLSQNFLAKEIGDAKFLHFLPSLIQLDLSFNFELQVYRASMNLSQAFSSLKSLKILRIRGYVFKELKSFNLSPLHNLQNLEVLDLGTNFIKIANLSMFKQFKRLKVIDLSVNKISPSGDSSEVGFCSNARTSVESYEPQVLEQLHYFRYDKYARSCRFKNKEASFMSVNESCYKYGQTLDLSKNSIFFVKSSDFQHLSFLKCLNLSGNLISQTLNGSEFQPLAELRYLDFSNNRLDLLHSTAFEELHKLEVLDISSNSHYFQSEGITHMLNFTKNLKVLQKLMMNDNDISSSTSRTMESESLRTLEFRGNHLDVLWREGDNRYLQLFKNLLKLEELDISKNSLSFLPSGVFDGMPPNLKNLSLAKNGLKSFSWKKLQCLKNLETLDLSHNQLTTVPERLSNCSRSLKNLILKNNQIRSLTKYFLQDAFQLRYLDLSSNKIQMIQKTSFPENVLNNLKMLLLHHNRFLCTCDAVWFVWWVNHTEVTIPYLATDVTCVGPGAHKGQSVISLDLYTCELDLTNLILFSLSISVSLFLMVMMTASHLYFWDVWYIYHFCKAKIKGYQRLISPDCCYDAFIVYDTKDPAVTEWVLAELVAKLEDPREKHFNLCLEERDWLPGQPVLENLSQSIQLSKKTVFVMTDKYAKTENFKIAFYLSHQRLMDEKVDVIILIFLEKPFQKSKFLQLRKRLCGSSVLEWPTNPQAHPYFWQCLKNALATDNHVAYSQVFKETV

human TLR8 = human TLR8 (Homo sapiens (Human), UniProt Q9NR97); assay: TLR8 inhibition reporter assay (HEK-Blue cells, SEAP reporter, R848 stimulation);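 note: compounds tested from 0.05 nM to 50 µM, 22 h at 37 °C, SEAP measured with HEK-Blue Detection, inhibition relative to agonist plus DMSO versus a known inhibitor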
human TLR8, sequence (Q9NR97 27-1041): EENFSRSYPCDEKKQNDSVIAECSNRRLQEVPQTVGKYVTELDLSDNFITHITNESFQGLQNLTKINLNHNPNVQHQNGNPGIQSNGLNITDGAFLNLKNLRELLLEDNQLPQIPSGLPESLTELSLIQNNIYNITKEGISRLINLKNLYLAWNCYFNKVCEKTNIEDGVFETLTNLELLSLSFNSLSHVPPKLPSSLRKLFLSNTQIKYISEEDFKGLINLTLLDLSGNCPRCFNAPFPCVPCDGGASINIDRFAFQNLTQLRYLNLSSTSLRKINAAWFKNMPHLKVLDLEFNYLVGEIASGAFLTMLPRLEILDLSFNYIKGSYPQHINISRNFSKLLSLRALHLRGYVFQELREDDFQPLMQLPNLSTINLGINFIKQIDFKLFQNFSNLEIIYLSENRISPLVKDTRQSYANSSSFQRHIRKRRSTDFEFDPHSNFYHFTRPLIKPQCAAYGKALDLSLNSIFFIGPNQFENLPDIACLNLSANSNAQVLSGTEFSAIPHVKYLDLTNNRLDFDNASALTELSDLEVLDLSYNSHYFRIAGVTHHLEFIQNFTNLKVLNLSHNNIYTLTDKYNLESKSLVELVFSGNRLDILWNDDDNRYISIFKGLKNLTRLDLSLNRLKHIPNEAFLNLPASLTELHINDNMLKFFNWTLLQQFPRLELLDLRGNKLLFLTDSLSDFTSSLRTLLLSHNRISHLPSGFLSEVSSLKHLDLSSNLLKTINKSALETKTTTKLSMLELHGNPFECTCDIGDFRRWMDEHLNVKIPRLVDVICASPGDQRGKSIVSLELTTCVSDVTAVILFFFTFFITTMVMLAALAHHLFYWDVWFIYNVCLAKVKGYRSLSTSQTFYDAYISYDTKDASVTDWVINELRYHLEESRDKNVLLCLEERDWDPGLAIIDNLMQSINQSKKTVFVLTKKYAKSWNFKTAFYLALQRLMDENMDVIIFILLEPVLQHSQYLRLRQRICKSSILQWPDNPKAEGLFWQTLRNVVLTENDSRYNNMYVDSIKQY

[1] = read-out: TLR9 IC50, HEK-Blue cells, ODN2006 5 nM
[2] = HEK-Blue cells, gardiquimod 7.5 μM
[3] = read-out: TLR8 IC50, HEK-Blue cells, R848 15.9 μM
[4] = read-out: TLR9 IC50, HEK-Blue cells overexpressing human TLR9, ODN2006 5 nM
[5] = HEK-Blue cells overexpressing human TLR7, gardiquimod 7.5 μM
[6] = read-out: TLR8 IC50, HEK-Blue cells overexpressing human TLR8, R848 15.9 μM
[7] = TLR8 IC50, HEK-Blue cells overexpressing human TLR8, R848 15.9 μM
[8] = TLR9 IC50, HEK-Blue cells overexpressing human TLR9, ODN2006 5 nM

human TLR9, sequence (Q9NR96 26-1032): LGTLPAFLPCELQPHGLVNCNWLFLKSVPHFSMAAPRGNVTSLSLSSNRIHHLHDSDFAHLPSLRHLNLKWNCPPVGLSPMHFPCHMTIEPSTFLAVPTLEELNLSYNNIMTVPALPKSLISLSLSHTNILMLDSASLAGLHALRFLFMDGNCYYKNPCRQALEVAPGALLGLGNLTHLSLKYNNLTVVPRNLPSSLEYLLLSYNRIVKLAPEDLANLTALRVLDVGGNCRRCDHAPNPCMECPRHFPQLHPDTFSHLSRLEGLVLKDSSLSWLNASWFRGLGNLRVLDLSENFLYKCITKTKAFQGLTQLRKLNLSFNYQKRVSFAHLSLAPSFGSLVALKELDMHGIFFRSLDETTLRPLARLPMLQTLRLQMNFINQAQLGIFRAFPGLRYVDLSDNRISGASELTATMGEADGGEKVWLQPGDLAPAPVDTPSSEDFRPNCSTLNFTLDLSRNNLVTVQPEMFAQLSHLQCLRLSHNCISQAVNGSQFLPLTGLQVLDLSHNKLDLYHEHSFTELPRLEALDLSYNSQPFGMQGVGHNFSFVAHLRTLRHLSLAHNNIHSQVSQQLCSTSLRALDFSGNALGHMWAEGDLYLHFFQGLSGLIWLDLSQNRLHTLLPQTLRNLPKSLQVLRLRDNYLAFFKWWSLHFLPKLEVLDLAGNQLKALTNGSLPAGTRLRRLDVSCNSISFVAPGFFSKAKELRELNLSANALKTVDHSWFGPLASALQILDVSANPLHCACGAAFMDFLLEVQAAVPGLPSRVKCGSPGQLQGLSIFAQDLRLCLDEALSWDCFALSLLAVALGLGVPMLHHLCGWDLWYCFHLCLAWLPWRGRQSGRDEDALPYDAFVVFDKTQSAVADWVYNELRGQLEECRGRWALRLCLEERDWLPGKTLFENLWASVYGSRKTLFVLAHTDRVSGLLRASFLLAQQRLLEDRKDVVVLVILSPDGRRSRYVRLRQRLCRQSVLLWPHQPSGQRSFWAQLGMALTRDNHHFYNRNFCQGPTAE

Cc1cc(-c2[nH]c3ccc(C4CCN(C5CCN(CC(C)C)CC5)CC4)cc3c2C)ccn1 [Example 810, 5-(1′-isobutyl-[1,4′-bipiperidin]-4-yl)-3-methyl-2-(2-methylpyridin-4-yl)-1H-indole]
IC50 (human TLR9; [1]): 19 nM
IC50 (human TLR7; [2]): 145 nM
IC50 (human TLR8; [3]): 16.2 nM

COCCCN1CCC(c2ccc3[nH]c(-c4cc(C)nc(C)c4)c(C(C)C)c3c2)CC1 [Example 330, 2-(2,6-dimethylpyridin-4-yl)-3-isopropyl-5-(1-(3-methoxypropyl)piperidin-4-yl)-1H-indole]
IC50 (human TLR9; [4]): 999 nM
IC50 (human TLR7; [5]): 3.7 nM
IC50 (human TLR8; [6]): 4.2 nM

Cc1cc(-c2[nH]c3ccc(C4CCNCC4)cc3c2C(C)C(F)(F)F)cc(C)n1 (centres unmarked) [Example 92, 2-(2,6-dimethylpyridin-4-yl)-5-(piperidin-4-yl)-3-(1,1,1-trifluoropropan-2-yl)-1H-indole]
IC50 (human TLR9; [4]): 446 nM
IC50 (human TLR7; [5]): 0.6 nM
IC50 (human TLR8; [6]): 5.2 nM

Cc1cc(-c2[nH]c3ccc(C4CCN(C(=O)CCNS(=O)(=O)c5ccccc5)CC4)cc3c2C(C)C)cc(C)n1 [Example 120, N-(3-(4-(2-(2,6-dimethylpyridin-4-yl)-3-isopropyl-1H-indol-5-yl)piperidin-1-yl)-3-oxopropyl)benzenesulfonamide]
IC50 (human TLR9; [4]): 16200 nM
IC50 (human TLR7; [5]): 12.5 nM
IC50 (human TLR8; [6]): 158 nM

Cc1cc(-c2[nH]c3ccc(C4CCN(Cc5cncs5)CC4)cc3c2C(C)C)cc(C)n1 [Example 444, 5-((4-(2-(2,6-dimethylpyridin-4-yl)-3-isopropyl-1H-indol-5-yl)piperidin-1-yl)methyl)thiazole]
IC50 (human TLR9; [4]): 617 nM
IC50 (human TLR7; [5]): 3.3 nM
IC50 (human TLR8; [6]): 1.6 nM

CCN(C)CC(=O)N1CCC(c2ccc3[nH]c(-c4cc(C)nc(C)c4)c(C(C)C)c3c2)CC1 [Example 356, 1-(4-(2-(2,6-dimethylpyridin-4-yl)-3-isopropyl-1H-indol-5-yl)piperidin-1-yl)-2-(ethyl(methyl)amino)ethan-1-one]
IC50 (human TLR9; [4]): 657 nM
IC50 (human TLR7; [5]): 3.3 nM
IC50 (human TLR8; [6]): 13.9 nM

CC(C)c1c(-c2ccnc(Cl)c2F)[nH]c2ccc(C3CCNCC3)cc12 [Example 21, 2-(2-chloro-3-fluoropyridin-4-yl)-3-isopropyl-5-(piperidin-4-yl)-1H-indole]
IC50 (human TLR9; [4]): 2980 nM
IC50 (human TLR7; [5]): 1.5 nM
IC50 (human TLR8; [6]): 4 nM

Cc1cc(-c2[nH]c3ccc(C4CCN(Cc5ncn(C)n5)CC4)cc3c2C(C)C)c(F)cn1 [Example 724, 2-(5-fluoro-2-methylpyridin-4-yl)-3-isopropyl-5-(1-((1-methyl-1H-1,2,4-triazol-3-yl)methyl)piperidin-4-yl)-1H-indole]
IC50 (human TLR7; [5]): 13.8 nM
IC50 (human TLR8; [6]): 9.6 nM

Cc1cc(-c2[nH]c3ccc(C4CCN(C(=O)C(C)C)CC4)cc3c2C(C)C)cc(C)n1 [Example 202, 1-(4-(2-(2,6-dimethylpyridin-4-yl)-3-isopropyl-1H-indol-5-yl)piperidin-1-yl)-2-methylpropan-1-one]
IC50 (human TLR9; [4]): 39900 nM
IC50 (human TLR8; [6]): 327 nM

Cc1cc(-c2[nH]c3ccc(C4CCN(C(=O)C5(C)COC5)CC4)cc3c2C(C)C)cc(C)n1 [Example 207, (4-(2-(2,6-dimethylpyridin-4-yl)-3-isopropyl-1H-indol-5-yl)piperidin-1-yl)(3-methyloxetan-3-yl)methanone]
IC50 (human TLR9; [4]): 47400 nM
IC50 (human TLR8; [6]): 90.4 nM

COCCC(=O)N1CCC(c2ccc3[nH]c(-c4ccnc(C)c4)c(C(C)C)c3c2)CC1 [Example 571, 1-(4-(3-isopropyl-2-(2-methylpyridin-4-yl)-1H-indol-5-yl)piperidin-1-yl)-3-methoxypropan-1-one]
IC50 (human TLR7; [5]): 79.3 nM
IC50 (human TLR8; [6]): 102 nM

Cc1cc(-c2[nH]c3ccc(C4CCN(C(=O)CC5C(=O)N(C)C(=O)N5C)CC4)cc3c2C(C)C)cc(C)n1 (centres unmarked) [Example 122, 5-(2-(4-(2-(2,6-dimethylpyridin-4-yl)-3-isopropyl-1H-indol-5-yl)piperidin-1-yl)-2-oxoethyl)-1,3-dimethylimidazolidine-2,4-dione]
IC50 (human TLR7; [5]): 6.7 nM
IC50 (human TLR8; [6]): 44.4 nM

Cc1cc(-c2[nH]c3cc(F)c(C4CCN(C5COC5)CC4)cc3c2C(C)C)cc(C)n1 [Example 834, 2-(2,6-dimethylpyridin-4-yl)-6-fluoro-3-isopropyl-5-(1-(oxetan-3-yl)piperidin-4-yl)-1H-indole]
IC50 (human TLR7; [2]): 4.4 nM
IC50 (human TLR8; [3]): 23.8 nM

Cc1cc(-c2[nH]c3ccc(C4CCN(C(=O)c5cccnc5)CC4)cc3c2C(C)C)cc(C)n1 [Example 113, (4-(2-(2,6-dimethylpyridin-4-yl)-3-isopropyl-1H-indol-5-yl)piperidin-1-yl)(pyridin-3-yl)methanone]
IC50 (human TLR7; [5]): 5.9 nM
IC50 (human TLR8; [6]): 78.6 nM

Cc1cc(-c2[nH]c3ccc(C4CCN(C(=O)CCn5ccc(C)n5)CC4)cc3c2C(C)C)cc(C)n1 [Example 143, 1-(4-(2-(2,6-dimethylpyridin-4-yl)-3-isopropyl-1H-indol-5-yl)piperidin-1-yl)-3-(3-methyl-1H-pyrazol-1-yl)propan-1-one]
IC50 (human TLR9; [4]): 25000 nM
IC50 (human TLR8; [6]): 172 nM

Cc1cc(-c2[nH]c3ccc(C4CCN(C(=O)C[C@H]5CCCN5)CC4)cc3c2C(C)C)cc(C)n1 [Example 193, (R)-1-(4-(2-(2,6-dimethylpyridin-4-yl)-3-isopropyl-1H-indol-5-yl)piperidin-1-yl)-2-(pyrrolidin-2-yl)ethan-1-one]
IC50 (human TLR9; [4]): 228 nM
IC50 (human TLR8; [6]): 14.8 nM

Cc1cc(-c2[nH]c3ccc(C4CCN(C(=O)C5CC(=O)N(C)C5)CC4)cc3c2C(C)C)ccn1 (centres unmarked) [Example 618, 4-(4-(3-isopropyl-2-(2-methylpyridin-4-yl)-1H-indol-5-yl)piperidine-1-carbonyl)-1-methylpyrrolidin-2-one]
IC50 (human TLR9; [4]): > 50000 nM
IC50 (human TLR8; [6]): 107 nM

COCCN(C)C(=O)CN1CCC(c2ccc3[nH]c(-c4cc(C)nc(C)c4)c(C(C)C)c3c2)CC1 [Example 254, 2-(4-(2-(2,6-dimethylpyridin-4-yl)-3-isopropyl-1H-indol-5-yl)piperidin-1-yl)-N-(2-methoxyethyl)-N-methylacetamide]
IC50 (human TLR7; [5]): 9 nM
IC50 (human TLR8; [7]): 17.6 nM

Cc1nccc(-c2[nH]c3ccc(C4CCN(Cc5cnc[nH]5)CC4)cc3c2C(C)C)c1N [Example 745, 4-(5-(1-((1H-imidazol-5-yl)methyl)piperidin-4-yl)-3-isopropyl-1H-indol-2-yl)-2-methylpyridin-3-amine]
IC50 (human TLR7; [5]): 99.9 nM
IC50 (human TLR8; [7]): 130 nM

Cc1cc(-c2[nH]c3ccc(C4CCN(C(=O)c5ccc(C)n(C)c5=O)CC4)cc3c2C(C)C)cc(C)n1 [Example 138, 3-(4-(2-(2,6-dimethylpyridin-4-yl)-3-isopropyl-1H-indol-5-yl)piperidine-1-carbonyl)-1,6-dimethylpyridin-2(1H)-one]
IC50 (human TLR7; [5]): 7.6 nM
IC50 (human TLR8; [6]): 108 nM

COCCC(=O)N1CCC(c2ccc3[nH]c(-c4cc(C)nc(C)c4)c(C(C)C)c3c2)CC1 [Example 118, 1-(4-(2-(2,6-dimethylpyridin-4-yl)-3-isopropyl-1H-indol-5-yl)piperidin-1-yl)-3-methoxypropan-1-one]
IC50 (human TLR9; [4]): > 50000 nM
IC50 (human TLR8; [6]): 79.8 nM

Cc1cc(-c2[nH]c3ccc(C4CCN(c5cccnc5)CC4)cc3c2C(C)C)ccn1 [Example 847, 3-isopropyl-2-(2-methylpyridin-4-yl)-5-(1-(pyridin-3-yl)piperidin-4-yl)-1H-indole]
IC50 (human TLR7; [2]): 61.9 nM
IC50 (human TLR8; [3]): 206 nM

Cc1c(-c2ccncc2)[nH]c2ccc(C3CCN(C4CCN(C)CC4)CC3)cc12 [Example 842, 3-methyl-5-(1′-methyl-[1,4′-bipiperidin]-4-yl)-2-(pyridin-4-yl)-1H-indole]
IC50 (human TLR9; [1]): 93 nM
IC50 (human TLR7; [2]): 388 nM

Cc1cc(-c2[nH]c3ccc(C4CCN(CC(=O)N(C)C5CCOCC5)CC4)cc3c2C(C)C)cc(C)n1 [Example 287, 2-(4-(2-(2,6-dimethylpyridin-4-yl)-3-isopropyl-1H-indol-5-yl)piperidin-1-yl)-N-methyl-N-(tetrahydro-2H-pyran-4-yl)acetamide]
IC50 (human TLR9; [8]): 328 nM
IC50 (human TLR8; [7]): 22 nM

COC(=O)c1c(-c2cc(C)nc(C)c2)[nH]c2ccc(C3CCNCC3)cc12 [Example 495, methyl 2-(2,6-dimethylpyridin-4-yl)-5-(piperidin-4-yl)-1H-indole-3-carboxylate]
IC50 (human TLR9; [4]): 144 nM
IC50 (human TLR8; [6]): 12500 nM

Cc1cc(-c2[nH]c3ccc(C4CCN(C(=O)[C@@]5(C)CCCN5)CC4)cc3c2C(C)C)cc(C)n1 [Example 192, (R)-(4-(2-(2,6-dimethylpyridin-4-yl)-3-isopropyl-1H-indol-5-yl)piperidin-1-yl)(2-methylpyrrolidin-2-yl)methanone]
IC50 (human TLR9; [4]): 154 nM
IC50 (human TLR8; [6]): 7.2 nM

CCN1CCC(N2CCC(c3ccc4[nH]c(-c5ccncc5)c(C)c4c3)CC2)CC1 [Example 841, 5-(1′-ethyl-[1,4′-bipiperidin]-4-yl)-3-methyl-2-(pyridin-4-yl)-1H-indole]
IC50 (human TLR9; [1]): 87 nM
IC50 (human TLR7; [2]): 492 nM

Cc1cc(-c2[nH]c3ccc(C4CCN(C(=O)CN5CCC(C)CC5)CC4)cc3c2C(C)C)cc(C)n1 [Example 376, 1-(4-(2-(2,6-dimethylpyridin-4-yl)-3-isopropyl-1H-indol-5-yl)piperidin-1-yl)-2-(4-methylpiperidin-1-yl)ethan-1-one]
IC50 (human TLR9; [4]): 628 nM
IC50 (human TLR8; [6]): 20.9 nM

Cc1cc(-c2[nH]c3ccc(C4CCN(C(=O)C5CCNC5)CC4)cc3c2C(C)C)cc(C)n1 (centres unmarked) [Example 186, (4-(2-(2,6-dimethylpyridin-4-yl)-3-isopropyl-1H-indol-5-yl)piperidin-1-yl)(pyrrolidin-3-yl) methanone]
IC50 (human TLR9; [8]): 516 nM
IC50 (human TLR8; [7]): 22.2 nM
